# Experimental data: patent US20080027072A1, “Potentiation of MC4 receptor activity” (AMPLA Pharmaceuticals, Inc., priority 2006, published 2008)
# What was measured:
# [1] = tested on: diet-induced obese male C57BL/6J mice; assay: 28-day body weight and food intake study in diet-induced obese mice; format: in vivo; details: day 29
# Experimental: Sibutramine, which is currently used clinically, and rimonabant, which has recently received regulatory approval for the management of obesity were used as reference compounds.
# C57BL/6J mice (7-8 weeks of age) were ordered from Charles River, Margate, Kent. Mice were group housed in polypropylene cages with free access to a high fat diet (D12451 45% of Kcal derived from fat; Research Diets, New Jersey, USA) and tap water at all times. Animals were maintained at 21±4° C. and 55±20% humidity on a normal phase 12 h light-dark cycle (lights on 04:30 h)
# Animals were exposed to the high fat diet for 16 weeks. During this time body weight was recorded weekly. At the end of 14 weeks animals were singly housed in polypropylene cages for a further two week period (weeks 14-16) and placed on reverse phase lighting (lights off for 8 h from 9.30-17.30 h) during which time the room was illuminated by red light. Animals were dosed with vehicle orally throughout the baseline period. Body weight and food and water intake was recorded daily. Towards the end of the baseline period animals were allocated to groups. Upon completion of the baseline period, mice were dosed for 28 days with vehicle or test drug.
# Body weight and food and water intake were recorded daily. Following drug administration the animals were examined and any overt behavior was recorded. For all dosing, the morning session was timed such that approximately half the mice were dosed at the time of lights out (09:30).
# The test compounds were dissolved in 1% methylcellulose. Drug solutions were made up fresh each day 1-2 h before dosing and were administered using a dose volume in the range of 1-3 ml/kg. Drug doses were expressed as free base.
# Resulting body weights, food intake and water intake were expressed as mean values±SEM, and the SEMs are calculated from residuals of the statistical model. Body weight data was analysed by ANCOVA with Day 1 as covariate followed by appropriate comparisons (two-tailed) to determine significant differences from the control group. […] Daily food and water intake data was analysed by ANOVA.
# [2] = molecular target: T1, human Melonocortin-4 (MC4) receptor (Homo sapiens, UniProt P32245); assay: α-MSH dose-response, intracellular Ca2+ (Indo-1) flow cytometry (DSIS) in clonal MC4 cells, +/- compound; format: cell-based; details: compound at a concentration of 1-10 μM
# T1 construct: expressed in transfected cells; host or cells: HEK293 (ATCC), G418-selected, FACS-sorted clonal cMC4 line
# T1 sequence (P32245 whole entry): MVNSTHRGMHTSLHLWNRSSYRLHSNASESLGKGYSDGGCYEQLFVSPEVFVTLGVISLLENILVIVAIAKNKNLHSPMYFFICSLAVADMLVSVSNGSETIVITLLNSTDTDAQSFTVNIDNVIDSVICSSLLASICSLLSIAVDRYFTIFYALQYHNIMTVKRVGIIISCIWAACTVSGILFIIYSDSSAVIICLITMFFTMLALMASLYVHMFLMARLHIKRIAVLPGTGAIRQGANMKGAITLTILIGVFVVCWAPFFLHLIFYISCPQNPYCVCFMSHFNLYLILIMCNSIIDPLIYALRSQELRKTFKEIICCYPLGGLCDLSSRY
# Experimental: The cMC4 and Control Cells were plated 24-48 hours in advance, and were harvested with trypsin at ˜80% confluency. Cells were then centrifuged and resuspended two times in Hybridoma Media, the final time at a concentration of 1×10^6 cells/mL. Both cell lines were then loaded with 2 mM of Indo-1 plus 3 μg/mL Biotin-X DHPE and then were incubated for 1 hour on a rotator at room temperature. Cells were washed two times and resuspended at a concentration of 1×10^6 cells/mL in Hybridoma Media. The cMC4 cell line then got 2 μg/ml of Alexa 488-streptavidin (Invitrogen/Molecular Probes). Cells were incubated for an additional 30 minutes on a rocker at room temperature. […]
# The probe-loaded cMC4 and Control cell mixture was placed in the Cell Suspension System on the DSIS where they were continuously rocked to keep them in a suspended state. […] The DSIS software, NVS Sampler, recorded a timing file and the CyAn software, Summit, recorded a data file. These two files were then compiled and analyzed by NVS Analyzer (see below) to determine the percent of cells that responded to each concentration. The data were transferred to GraphPAD Prism (GraphPad Software, San Diego, Calif.) for a non-linear regression curve fit that determined the EC50. […]
# When the screen was complete, the data files and the timing files were analyzed using NVS Analyzer. […]
# [3] = molecular target: T2, MC4 receptor (Homo sapiens, UniProt P32245); assay: Competition ligand binding assay with [125I]-NDP-α-MSH, HEK293 cell membranes; set-up: expressed in transfected cells; host or cells: HEK293 stably expressing human MC4 receptor
# T2 sequence (P32245 whole entry): as above
# Experimental: The binding was carried out at room temperature for another 2 h. […] Binding was terminated by addition of cold binding buffer and filtration on Whatman GF/B glass-fiber filters using a sampling manifold. The filters were washed 6 times with cold binding buffer and air-dried overnight. The radioactivity was quantified on a TopCounter after adding scintillation fluid. […] Data were analyzed by non-linear regression using program GraphPAD Prism (FIG. 5).
# [4] = molecular target: T2, MC4 receptor; assay: ELISA-based cAMP assay in HEK293 cells stably expressing human MC4 receptors; format: cell-based; set-up: expressed in transfected cells; host or cells: HEK293 stably expressing human MC4 receptor
# Experimental: ELISA-based cAMP assay was used to determine ligand-induced cAMP accumulation in HEK293 cells stably expressing human MC4 receptors in 96-well plate format. Compounds and cAMP standards were diluted in DMEM (without FBS and phenol red) containing 1 mM IBMX. Cells were plated in T-75 flasks and cultured for 24 h before use. Cells were removed from tissue culture flasks using enzyme-free cell dissociation buffer, washed and resuspended in DMEM (without FBS and phenol red) containing 1 mM IBMX at a density of 1×10^6 cells/ml. […] After incubation for 1 h, 50 μl of lysis buffer (0.5% NP-40 in TBS) was added, and incubated for 30 min. After adding rabbit anti-cAMP antibody (Sigma) diluted in TBST (TBS containing 0.05% Tween 20) (25 μl/well) and incubating for 30 min, 25 μl of cAMP-HRP conjugate dilution (in TBST) was added, and incubated for another 1 h. The plate was washed 6 times with TBST. To each well 200 μl of substrate (SuperSignal ELISA Pico Chemiluminesent substrate, Pierce, #37070) was added. The chemiluminescence activity was measured by a luminescence plate reader (NOVAstar, BMG Labtech). cAMP amount for each sample was estimated from cAMP standard curve.
# [5] = tested on: diet-induced obese male wild-type C57BL/6J mice; assay: Food intake and body weight, diet-induced obese wild-type mice; format: in vivo; details: 40 mg/kg oral, day 2, wild-type
# Experimental: (§1) Mice were dosed at 40 mg/kg for two days with vehicle or test drug. Body weight and food and water intake were recorded daily.
# (§2) The test compound was ground while being diluted in 1% methylcellulose, and the final solution was sonicated to give a uniform suspension suitable for dosing. Drug solutions were made up fresh each day 1-2 h before dosing and were administered using a dose volume in the range of 1-3 ml/kg.
# [6] = tested on: diet-induced obese male MC4 knockout C57BL/6J mice; assay: Food intake and body weight, diet-induced obese MC4 knockout mice; format: in vivo; details: 40 mg/kg oral
# Experimental: as §1, §2
# [7] = molecular target: T2, MC4 receptor; assay: Binding experiments with the MC4 receptor inverse agonist AgRP (FIG. 6); set-up: expressed in transfected cells
# [8] = molecular target: T2, MC4 receptor; assay: Single-well kinetics of the αMSH response (FIGS. 9A-9E); format: cell-based; set-up: expressed in transfected cells
# Experimental: FIGS. 9A-9E show response kinetics from single-well assays. The response was initiated by αMSH with or without Compound 1. […] Whereas at 1 μM and 300 nM, αMSH onset and peak were increased and sustained. The onset and peak response increased with 3 μM and 10 μM concentrations of Compound 1 at all concentrations of αMSH.
smiles,measurement,setting,value
CC(C)CC(N(C)C)C1(c2ccc(Cl)cc2)CCC1 (stereo not drawn) [Sibutramine],reduction of body weight,[1]; 20 mg/kg oral,2%
Cc1c(C(=O)NN2CCCCC2)nn(-c2ccc(Cl)cc2Cl)c1-c1ccc(Cl)cc1 [Rimonabant],reduction of body weight,[1]; 10 mg/kg oral,15%
same,"weight reduction as compared to vehicle, significance",[1]; 10 mg/kg oral,statistically significant weight reduction
Clc1ccc(N2CCN(Cc3c[nH]c4ncccc34)CC2)cc1 [Compound 2],shift in the EC50 of α-MSH,[2],left shift
same,EC50,[3],252 µM
same,effect on the response of NDP-α-MSH,[4]; cAMP accumulation,potentiate
OC1(c2ccc(Cl)cc2)CCN(Cc2c[nH]c3ccccc23)CC1 [Compound 1],shift in the EC50 of α-MSH,[2],left shift
same,body weight as compared to vehicle,[5],statistically significant decrease
same,reduction in food intake as compared to vehicle,[5],~40%
same,body weight as compared to vehicle,[6],did not show a similar decrease
same,reduction in food intake as compared to vehicle,[6],did not show a similar reduction
same,dissociation of AgRP from the MC4 receptor,[7],increases the dissociation
same,onset and peak response to αMSH,"[8]; 3 μM and 10 μM Compound 1, all concentrations of αMSH",increased
same,activity induced by the compound itself,"[8]; 10 μM Compound 1, 100 nM and 30 nM αMSH (FIG. 9E)",low level activity
same,maximum peak response to αMSH,[8]; low concentrations of Compound 1,did not appreciably increase
same,EC50,[3],3.96 µM
same,effect on AgRP activity,"[4]; FIG. 8, cAMP",attenuates
same,effect on α-MSH activity,"[4]; FIG. 8, cAMP",potentiates
